These results are taken from PubChem BioAssay (NCI).

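Step 1: Grow cells in 96-well plates. Step 2: Expose to compound for 48 hours at 5 concentrations. Step 3: Interpolate endpoints linearly; if unreached, use highest concentration. TGI denotes the concentration required for complete inhibition of growth.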 A value given as a limit tells only on which side of the number the result lay.

What all share (experiment): NCI anticancer screen, dose series, 48 h
The subject of assay [1] is NCI-H460 lung.
In assay [2] the test system is SK-MEL-28 melanoma.
Assay [3] deals with SF-295 CNS.
For assay [4], the system named is 786-0 renal.
Assay [5] has as its system IGROV1 ovarian.
Assay [6] deals with MOLT-4 leukemia.
Assay [7] concerns MCF7 breast.
The test system of assay [8] is UO-31 renal.
In assay [9] the test system is SR leukemia.
Assay [10] concerns ACHN renal.
The subject of assay [11] is MALME-3M melanoma.

`CC[C@]12C=CCN3CCC4(c5cc([C@@]6(C(=O)OC)CC7CN(CCc8c6[nH]c6ccccc86)C[C@@H]6CCC[C@H]76)c(OC)cc5N(C)C4[C@](O)(C(=O)OC)C1OC(C)=O)C32` (stereo partly drawn): the TGI is above 4.71 µM in assay [1]; above 10 µM in [2]; above 3.23 µM in assay [3]; above 10 µM in assay [4]; 7.31 µM in assay [5]; 6.02 µM in assay [6]. Also, the TGI was above 10 µM in assay [7]; above 10 µM in assay [8]; 0.788 µM in assay [9]; above 8.37 µM in [10]; above 5.04 µM in [11].

`Cc1cccc(NC(=S)N/N=C(/c2ccccc2)c2ccccn2)c1`: the TGI in [1] was 8.91 µM; in assay [2], 40.5 µM; in assay [3], 10.7 µM; in assay [4], 14.6 µM; in [5], 16.7 µM; in [6], above 6.59 µM. The TGI in [7] was found to be 0.663 µM; in assay [8], 10.4 µM; in assay [9], 7.13 µM; in assay [10], 11.8 µM; in assay [11], 12.6 µM.

On to `COC(=O)C1CCC(=O)N1C(c1ccc2c(c1)OCO2)c1ccc2c(c1)OCO2` (stereo not drawn), for which the TGI in [1], in [2], in [3], in [4], in assay [5] and in assay [6] was above 100 µM each time. The TGI in assay [7], in assay [8], in [9], in [10] and in assay [11] was above 100 µM in each case.

`CCCCCCCC/C=C/CCCCCCCC1CC(O)C(=O)O1` (stereo not drawn): the TGI in [1], in [2], in [3], in assay [4], in [5] and in [6] was above 100 µM throughout. The TGI in assay [7], in assay [8], in [9], in [10] and in [11] was above 100 µM each time.

For `O=C1O[C@H]2[C@@H]3OC(=O)c4cc(O)c(O)c(O)c4-c4c(cc(O)c(O)c4O)C(=O)OC[C@H]2O[C@@H](OC(=O)c2cc(O)c(O)c(O)c2)[C@@H]3OC(=O)c2cc(O)c(O)c3c2[C@@H]2C1=CC(=O)C(O)(O)C2(O)O3` (stereo partly drawn), the TGI in [1] is above 100 µM; in assay [2] it was above 100 µM; in [3], above 100 µM; in assay [4], 39.8 µM; in assay [5], above 100 µM; in assay [6], 92 µM. Further, the TGI was 50.6 µM in assay [7]; above 100 µM in assay [8]; above 100 µM in assay [9]; above 100 µM in assay [10]; above 100 µM in [11].

`S=C1SC(c2ccc(Cl)cc2)(c2ccc(Cl)cc2)c2ccccc21`: the TGI in assay [1], in [2], in assay [3], in assay [4], in assay [5] and in [6] was above 100 µM in each case. Moreover, the TGI in [7] is above 100 µM; in [8] it was above 100 µM; in assay [9], 89.9 µM; in assay [10] it was above 100 µM; in assay [11], above 100 µM.

Take `CC1(C)CC[C@]2(C(=O)O)CC[C@]3(C)C(=CC[C@@H]4[C@@]5(C)CC[C@H](OC6OC(CO)C(O)C(O)C6OC6OC(CO)C(O)C(O)C6O)C(C)(C)[C@@H]5CC[C@]43C)[C@@H]2C1` (stereo partly drawn): the TGI in assay [1] was determined as 41.5 µM; in [2] it was 28.9 µM; in assay [3], 36 µM; in assay [4], 30.1 µM; in [5] it was 34.6 µM; in assay [6], 48.3 µM. Moreover, the TGI in assay [7] stood at 36.7 µM; in [8], 35.8 µM; in [9] it was 68 µM; in assay [10], 32.7 µM; in [11], 30.1 µM.

Consider `CN(C)/C=N/S(=O)(=O)c1nn2c(C=O)c(-c3ccc(-c4ccc([N+](=O)[O-])cc4)o3)nc2s1`, for which the TGI in assay [1] was 8.42 µM; in assay [2], 6.22 µM; in assay [3] it was above 46.5 µM; in assay [4], 2.47 µM; in [5], 4.42 µM; in assay [6] it was 14.3 µM. For the same compound, the TGI in [7] is above 32.6 µM; in [8], 5.99 µM; in [9] it was 5.4 µM; in assay [10], 8.99 µM; in [11], 4.15 µM.

For `CCN(CC)c1nc(N(C)C)c2cc(OC)ccc2n1`, the TGI was above 100 µM in [1]; above 100 µM in assay [2]; above 100 µM in assay [3]; 86.2 µM in assay [4]; above 100 µM in assay [5]; 65.1 µM in assay [6]. For the same compound, the TGI is above 100 µM in assay [7]; above 100 µM in assay [8]; 76.9 µM in assay [9]; above 100 µM in [10]; 62 µM in assay [11].

With `COC(Cc1ccccc1)NC(C)=O` (stereo not drawn), the TGI in [1], in assay [2], in assay [3], in assay [4], in [5] and in assay [6] was above 100 µM in each case. Further, the TGI in assay [7], in assay [8], in [9], in assay [10] and in assay [11] was above 100 µM in each case.

Regarding `Cc1nc(C)c(N2CCN(C#N)CC2)c(=O)[nH]1`, the TGI in assay [1], in assay [2], in assay [3], in [4], in [5] and in assay [6] was above 100 µM throughout. Besides, the TGI in assay [7], in [8], in assay [9], in assay [10] and in assay [11] was above 100 µM each time.

Turning to `CN(C(=O)c1cccs1)C(=S)N1CCN(c2ccccc2)CC1`, the TGI in assay [1], in assay [2], in assay [3], in [4], in assay [5] and in assay [6] was above 100 µM each time. The TGI in assay [7], in assay [8], in assay [9], in assay [10] and in assay [11] was above 100 µM in each case.

On to `C/C(=N\Nc1nc2ccccc2o1)c1ccncn1`, for which the TGI was above 42.6 µM in assay [1]; above 100 µM in assay [2]; above 100 µM in assay [3]; 18.3 µM in assay [4]; 30.9 µM in assay [5]; above 100 µM in assay [6]. Further, the TGI was above 43.8 µM in assay [7]; 75.5 µM in assay [8]; above 100 µM in assay [9]; above 100 µM in assay [10]; 97.5 µM in [11].

Regarding `CCOC(=O)C1(Cc2ccccc2)Cc2ccccc2C1=O` (stereo not drawn), the TGI is above 100 µM in assay [1]; 92.5 µM in assay [2]; above 100 µM in [3]; above 100 µM in assay [4]; above 100 µM in assay [5]; 57.5 µM in assay [6]. For the same compound, the TGI is above 100 µM in assay [7]; 57.3 µM in assay [8]; 78.2 µM in [9]; above 100 µM in assay [10]; 52.3 µM in [11].

Regarding `COc1cc(/C=C(\C#N)c2ccccn2)cc(Br)c1O`, the TGI is above 100 µM in assay [1]; above 100 µM in assay [2]; 83.2 µM in assay [3]; above 100 µM in [4]; above 100 µM in assay [5]; above 100 µM in [6]. In addition, the TGI in assay [7], in [8], in assay [9], in [10] and in assay [11] was above 100 µM in each case.

Regarding `CCCCCCCCCCCCP(=O)(O)OCC(N)C(=O)O` (stereo not drawn), the TGI is 89.6 µM in assay [1]; above 100 µM in [2]; 41.4 µM in assay [3]; above 100 µM in assay [4]; above 100 µM in [5]; 61.7 µM in assay [6]. Moreover, the TGI in [7] is above 100 µM; in assay [8] it was 26 µM; in assay [9], above 100 µM; in assay [10], above 100 µM; in assay [11], above 100 µM.

As for `N/N=C(\C(=O)Nc1ccc([N+](=O)[O-])cc1)C(C1=Nc2cc([N+](=O)[O-])ccc2NC1)[N+](=O)[O-]` (stereo not drawn), the TGI in assay [1], in [2], in assay [3], in assay [4], in assay [5] and in [6] was above 100 µM throughout. Besides, the TGI in assay [7], in [8], in [9], in assay [10] and in [11] was above 100 µM in each case.

Turning to `C[C@]12CCC(=O)C=C1CC[C@@H]1C2CC[C@]2(C)Nc3c(ncn3-c3ccc(F)cc3)CC12` (stereo partly drawn), the TGI in assay [1] is 57.4 µM; in assay [2], above 100 µM; in assay [3], 45.3 µM; in [4], above 100 µM; in assay [5], above 100 µM; in [6] it was 90.8 µM. For the same compound, the TGI in assay [7] is 74 µM; in assay [8] it was above 100 µM; in assay [9], 29.9 µM; in assay [10], above 100 µM; in assay [11], 70.4 µM.

On to `CC(=O)O[C@H]1[C@@H](N2CCN(C)CC2)C[C@H]2[C@@H]3CC=C4C[C@@H](N5CCCC5)CC[C@]4(C)[C@H]3CC[C@@]21C`, for which the TGI is above 100 µM in [1]; 96.9 µM in assay [2]; 53.5 µM in [3]; above 100 µM in [4]; above 100 µM in assay [5]; above 100 µM in assay [6]. Further, the TGI in [7] was above 100 µM; in assay [8], above 100 µM; in assay [9], 5.52 µM; in assay [10], above 100 µM; in assay [11], 51 µM.

As to `CC1(C)O[C@@H]2[C@@H]3OC(=O)C[C@@H]3[C@@H](COCc3ccccc3)[C@@H]2O1`, the TGI in assay [1], in assay [2], in assay [3], in assay [4], in [5] and in assay [6] was above 100 µM each time. Moreover, the TGI in [7], in assay [8], in [9], in assay [10] and in assay [11] was above 100 µM each time.

Regarding `CC1Cc2cc(O)ccc2C2[C@@H]1C1CC[C@H](O)[C@@]1(C)C[C@@H]2O[N+](=O)[O-]` (stereo partly drawn), the TGI in assay [1] was above 95.7 µM; in [2], 81.8 µM; in [3] it was 39.2 µM; in assay [4], 65.3 µM; in assay [5], above 100 µM; in [6], above 100 µM. Further, the TGI was 25.3 µM in [7]; 63.7 µM in assay [8]; above 56.8 µM in [9]; above 100 µM in assay [10]; above 79.6 µM in assay [11].

For the compound `C=C(C(=O)O)[C@@H]1C[C@@H]2O[C@H]1CC(C)=CCC/C(C)=C/CC[C@@]2(C)O`, the TGI in [1], in assay [2], in assay [3], in assay [4], in assay [5] and in [6] was above 100 µM in each case. For the same compound, the TGI in assay [7], in [8], in assay [9], in assay [10] and in assay [11] was above 100 µM throughout.

Consider `COC(=O)CCC(=O)c1ccc2c(c1)CC1(C2)Cc2ccc3c(c2C1)CCCC3=O` (stereo not drawn), for which the TGI was above 100 µM in assay [1]; above 100 µM in [2]; 79.3 µM in assay [3]; above 85.2 µM in assay [4]; above 100 µM in [5]; 18.2 µM in [6]. In addition, the TGI is 69.9 µM in assay [7]; above 59.3 µM in assay [8]; 8.05 µM in assay [9]; above 70.2 µM in [10]; above 68.1 µM in assay [11].
